Values quoted from earlier work as cited in article PMC9516332 (Frontiers in Oncology, 2022).
Read-outs that look alike come from different tables or passages of the source.

How the values were obtained:
Settings in all cases: cited from earlier work
[1] = target: T1, panel of 255 wild-type kinases (Homo sapiens, UniProt Q8TDC3)
T1 sequence (Q8TDC3 1-778): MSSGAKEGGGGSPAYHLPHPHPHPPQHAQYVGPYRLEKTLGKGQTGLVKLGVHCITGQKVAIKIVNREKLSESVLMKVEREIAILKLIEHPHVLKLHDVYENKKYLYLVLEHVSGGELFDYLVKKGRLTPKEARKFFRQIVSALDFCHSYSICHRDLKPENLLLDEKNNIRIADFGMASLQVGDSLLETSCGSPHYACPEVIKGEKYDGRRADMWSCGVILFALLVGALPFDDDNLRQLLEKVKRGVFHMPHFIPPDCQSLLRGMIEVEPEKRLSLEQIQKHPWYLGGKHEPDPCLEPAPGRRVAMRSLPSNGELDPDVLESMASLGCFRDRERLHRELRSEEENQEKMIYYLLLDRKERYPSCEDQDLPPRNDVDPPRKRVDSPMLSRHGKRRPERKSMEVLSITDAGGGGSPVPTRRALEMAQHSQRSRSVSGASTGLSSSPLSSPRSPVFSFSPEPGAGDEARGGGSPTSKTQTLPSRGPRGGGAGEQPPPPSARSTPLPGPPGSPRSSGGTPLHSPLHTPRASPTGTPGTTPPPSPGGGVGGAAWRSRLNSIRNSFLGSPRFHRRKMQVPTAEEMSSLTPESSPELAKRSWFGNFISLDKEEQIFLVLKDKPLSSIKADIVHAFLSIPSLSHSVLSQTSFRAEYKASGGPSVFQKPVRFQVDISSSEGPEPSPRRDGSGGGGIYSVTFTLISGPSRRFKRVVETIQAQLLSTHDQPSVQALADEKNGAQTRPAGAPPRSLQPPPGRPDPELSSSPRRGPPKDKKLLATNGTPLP

[2] = target: panel of 255 wild-type kinases (Homo sapiens, UniProt Q13164)
[3] = target: panel of 255 wild-type kinases (Homo sapiens, UniProt P22455)
[4] = target: T2, panel of 255 wild-type kinases (Homo sapiens, UniProt Q9UF33)
T2 sequence (Q9UF33 23-1036): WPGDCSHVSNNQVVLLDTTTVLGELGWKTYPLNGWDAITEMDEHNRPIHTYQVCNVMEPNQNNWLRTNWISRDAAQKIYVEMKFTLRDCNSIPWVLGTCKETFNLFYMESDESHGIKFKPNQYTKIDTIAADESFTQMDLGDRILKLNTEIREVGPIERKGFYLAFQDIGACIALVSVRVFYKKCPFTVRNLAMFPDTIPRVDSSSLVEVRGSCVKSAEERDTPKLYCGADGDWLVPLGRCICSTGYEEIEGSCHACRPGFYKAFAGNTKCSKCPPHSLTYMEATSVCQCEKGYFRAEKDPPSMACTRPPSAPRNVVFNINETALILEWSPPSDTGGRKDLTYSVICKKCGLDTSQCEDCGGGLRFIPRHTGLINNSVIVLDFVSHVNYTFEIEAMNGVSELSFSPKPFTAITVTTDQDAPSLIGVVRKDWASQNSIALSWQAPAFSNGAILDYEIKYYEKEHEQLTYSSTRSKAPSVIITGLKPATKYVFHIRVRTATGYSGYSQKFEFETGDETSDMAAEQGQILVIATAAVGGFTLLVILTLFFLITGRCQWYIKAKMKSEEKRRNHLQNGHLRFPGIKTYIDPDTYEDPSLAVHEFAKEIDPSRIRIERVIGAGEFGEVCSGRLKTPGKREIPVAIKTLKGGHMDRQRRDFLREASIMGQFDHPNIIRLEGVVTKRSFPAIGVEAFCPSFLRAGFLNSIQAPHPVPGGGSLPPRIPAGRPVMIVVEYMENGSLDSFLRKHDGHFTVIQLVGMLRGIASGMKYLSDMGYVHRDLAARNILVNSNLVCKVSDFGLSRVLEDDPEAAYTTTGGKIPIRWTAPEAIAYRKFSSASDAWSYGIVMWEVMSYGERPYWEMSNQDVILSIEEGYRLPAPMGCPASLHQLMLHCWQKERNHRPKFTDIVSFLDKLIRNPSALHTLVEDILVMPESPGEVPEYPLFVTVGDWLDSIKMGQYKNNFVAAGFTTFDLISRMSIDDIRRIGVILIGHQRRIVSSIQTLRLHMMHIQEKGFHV

[5] = BRSK1 kinase assay, 1 µmol/L single concentration, ref DOI: 10.1158/1535-7163.MCT-18-0877
[6] = kinase Erk5, 1 µmol/L single concentration, ref DOI: 10.1158/1535-7163.MCT-18-0877
[7] = kinase FGFR4, 1 µmol/L single concentration, ref DOI: 10.1158/1535-7163.MCT-18-0877
[8] = kinase EPHA6, 1 µmol/L single concentration, ref DOI: 10.1158/1535-7163.MCT-18-0877
[9] = BRSK1 kinase assay, 1 µmol/L single concentration, ref DOI: 10.1371/journal.pone.0092146
[10] = kinase Erk5, 1 µmol/L single concentration, ref DOI: 10.1371/journal.pone.0092146
[11] = kinase FGFR4, 1 µmol/L single concentration, ref DOI: 10.1371/journal.pone.0092146
[12] = kinase EPHA6, 1 µmol/L single concentration, ref DOI: 10.1371/journal.pone.0092146

| SMILES | %-inhibition BRSK1 [1, 5] [%] | %-inhibition at 1 µmol/L, Erk5 [2, 6] [%] | %-inhibition at 1 µmol/L, FGFR4 [3, 7] [%] | %-inhibition at 1 µmol/L, EPHA6 [4, 8] [%] | %-inhibition BRSK1 [1, 9] [%] | %-inhibition at 1 µmol/L, Erk5 [2, 10] [%] | %-inhibition at 1 µmol/L, FGFR4 [3, 11] [%] | %-inhibition at 1 µmol/L, EPHA6 [4, 12] [%] | further results |
| --- | --- | --- | --- | --- | --- | --- | --- | --- | --- |
| CC#CC(=O)N1CCC[C@H]1c1nc(-c2ccc(C(=O)Nc3ccccn3)cc2)c2c(N)nccn12 [acalabrutinib] | -1.79 | -2.12 | -9 | -2.37 |  |  |  |  |  |
| CCc1cc2c(cc1N1CCC(N3CCOCC3)CC1)C(C)(C)c1[nH]c3cc(C#N)ccc3c1C2=O [alectinib] | 8.48 | -1.24 | 4 | 0.529 |  |  |  |  |  |
| COc1cc(N2CCC(N3CCN(C)CC3)CC2)ccc1Nc1ncc(Cl)c(Nc2ccccc2P(C)(C)=O)n1 [brigatinib] |  |  |  |  |  |  |  |  | %-inhibition BRSK1 [1]: 84%; %-inhibition at 1 µmol/L, Erk5 [2]: 96%; %-inhibition at 1 µmol/L, FGFR4 [3]: 82%; %-inhibition at 1 µmol/L, EPHA6 [4]: 20% |
| Cc1cc(Nc2ncc(Cl)c(Nc3ccccc3S(=O)(=O)C(C)C)n2)c(OC(C)C)cc1C1CCNCC1 [ceritinib] | 32 | 94 | 69 | 29 |  |  |  |  |  |
| O=C(c1ccc(F)c(F)c1Nc1ccc(I)cc1F)N1CC(O)([C@@H]2CCCCN2)C1 [cobimetinib] | -13 | 1.71 | -0.0569 | 1.6 |  |  |  |  |  |
| C[C@@H](Oc1cc(-c2cnn(C3CCNCC3)c2)cnc1N)c1c(Cl)ccc(F)c1Cl [crizotinib] |  |  |  |  | 12 | 45 | 0 | 100 |  |
| CC(C)(C)c1nc(-c2cccc(NS(=O)(=O)c3c(F)cccc3F)c2F)c(-c2ccnc(N)n2)s1 [dabrafenib] |  |  |  |  | 37 | 0.144 | 19 | 88 |  |
| C=CC(=O)N1CCC[C@@H](n2nc(-c3ccc(Oc4ccccc4)cc3)c3c(N)ncnc32)C1 [ibrutinib] | -7 | 4 | 37 | 93 |  |  |  |  |  |
| CO[C@@H]1[C@H](N(C)C(=O)c2ccccc2)C[C@H]2O[C@]1(C)n1c3ccccc3c3c4c(c5c6ccccc6n2c5c31)C(=O)NC4 [midostaurin] |  | -1.27 | 38 | 19 |  |  |  |  | %-inhibition BRSK1 [1]: 95% |
| C=CC(=O)Nc1cc(Nc2nccc(-c3cn(C)c4ccccc34)n2)c(OC)cc1N(C)CCN(C)C [osimertinib] | -12 | 10 | 11 | 2.33 |  |  |  |  |  |
| CC(=O)Nc1cccc(-n2c(=O)n(C3CC3)c(=O)c3c(Nc4ccc(I)cc4F)n(C)c(=O)c(C)c32)c1 [trametinib] |  |  |  |  | -6 | -2.55 | -3 | -2.51 |  |
| CCCS(=O)(=O)Nc1ccc(F)c(C(=O)c2c[nH]c3ncc(-c4ccc(Cl)cc4)cc23)c1F [vemurafenib] |  |  |  |  | -8 | 0.709 | 5 | 37 |  |
